Data as given in publication PMC12794516, “Modulation of endothelial-to-mesenchymal transition via NRP-1 targeting with melittin attenuates pulmonary fibrosis” (Materials Today Bio, 2025).

What was measured:
NRP-1 receptor on HUVECs = test: In vitro cell targeting (uptake of MLT-RhB, flow cytometry and confocal imaging); assay type: cell-based, Human; conditions: flow cytometry; HUVECs with TGF-β1 10 ng/mL 48 h; MLT-RhB 2 μg/mL 1 h; n = 3
Method: To assess the NRP-1 receptor-targeting ability of MLT, HUVECs were seeded into 96-well plates at a density of 1.5 × 10^4 cells per well and cultured overnight in complete growth medium. TGF-β1 (10 ng/mL) was added to all groups except the control group and incubated for 48 h. Subsequently, each group was treated with the RPARPAR peptide (0.5 mM) for 1 h, followed by the addition of MLT-RhB (2 μg/mL) for an additional hour. For flow cytometry, cells were processed and analyzed using a flow cytometer (Dakewe Biotech Co., Ltd., China), and data were analyzed with FlowJo software (FlowJo, Ashland, OR, USA). For immunofluorescence, following the same treatment protocol, cells were fixed with 4 % paraformaldehyde and immunostained. NRP-1 was detected using an anti-NRP-1 primary antibody and an Alexa Fluor® 647-conjugated secondary antibody. Nuclei were stained with DAPI. Imaging was performed using a SpinSR10 spinning disk confocal super-resolution microscope (Olympus, Japan) with the following excitation wavelengths: 405 nm for DAPI; 535 nm for RhB; and 640 nm for NRP-1.

[1] = In vivo and ex vivo fluorescence imaging (biodistribution, blood and lung retention); parameters: species or system C57BL/6 mice
Method: To evaluate the biodistribution and lung targeting of MLT and M-pLNP, two fluorescence imaging experiments were performed in a BLM-induced PF model. In the first study, normal and PF mice (n = 6) received a single intraperitoneal injection of MLT-RhB (or PBS control), and were euthanized 30 min later for collection of major organs. In the second study, PF mice were randomly divided into two groups receiving either MLT-RhB or M-pLNP-RhB. Comprehensive in vivo whole-body fluorescence imaging was performed at multiple time points (10 min, 30 min, 1 h, 3 h and 6 h) after administration. Additionally, ex vivo analysis was conducted by collecting blood samples and lung tissues at […] critical time points (10 min, 30 min, 1 h, 6 h, 12 h, and 24 h). All imaging was performed using an IVIS Lumina XRMS system, in vivo and ex vivo samples were imaged through RhB channels (Ex/Em = 545/570 nm). Mean fluorescence intensity was used to quantitatively assess tissue distribution and lung accumulation.

HUVECs = test: Cell viability assay (MTS); assay type: cell-based, Human; conditions: 24 h incubation, n = 3
Method: Cell viability was assessed using the MTS assay (Promega). Briefly, HUVECs were seeded at 5000 cells/well in triplicate in a 96-well plate. When the density of the cells reached approximately 80 %, MLT at different concentrations was added, and the cells were incubated for 24 h. Then, 20 μL of MTS reagent was added to each well, followed by incubated for 2 h. Absorbance was measured at 490 nm using a microplate reader.

[2] = RhB-labeled, single i.p. injection, PF mice, ex vivo lung fluorescence, n = 3

Compound | mean fluorescence intensity (MFI) of RhB in TGF-β1 group vs control group (uptake) (NRP-1 receptor on HUVECs) | lung radiant efficiency, PF lungs vs control ([1]; MLT-RhB single intraperitoneal injection, ex vivo imaging 30 min post-injection, PF vs normal mice, n = 3) [fold] | time within which the blood fluorescence signal was nearly undetectable ([1]; RhB-labeled, single i.p. injection, 15 nmol RhB equivalent per mouse, PF mice, blood samples) [h] | time within which the peritoneal fluorescence signal was substantially weakened ([1]; RhB-labeled, single i.p. injection, 15 nmol RhB equivalent per mouse, PF mice, in vivo imaging) [min] | time by which lung fluorescence reached near-background levels (clearance) [1, 2] [h] | time of peak lung accumulation [1, 2] [min] | concentration at which MLT started to induce cellular toxicity (HUVECs) [ng/mL]
MLT-RhB: Rhodamine B-labeled MLT | significantly higher than that in the control group | ~1.5 |  |  |  |  | 
CC[C@H](C)[C@H](NC(=O)CN)C(=O)NCC(=O)N[C@@H](C)C(=O)N[C@H](C(=O)N[C@@H](CC(C)C)C(=O)N[C@@H](CCCCN)C(=O)N[C@H](C(=O)N[C@@H](CC(C)C)C(=O)N[C@H](C(=O)N[C@H](C(=O)NCC(=O)N[C@@H](CC(C)C)C(=O)N1CCC[C@H]1C(=O)N[C@@H](C)C(=O)N[C@@H](CC(C)C)C(=O)N[C@H](C(=O)N[C@@H](CO)C(=O)N[C@@H](Cc1c[nH]c2ccccc12)C(=O)N[C@H](C(=O)N[C@@H](CCCCN)C(=O)N[C@@H](CCCNC(=N)N)C(=O)N[C@@H](CCCCN)C(=O)N[C@@H](CCCNC(=N)N)C(=O)N[C@@H](CCC(N)=O)C(=O)N[C@@H](CCC(N)=O)C(N)=O)[C@@H](C)CC)[C@@H](C)CC)[C@@H](C)O)[C@@H](C)O)C(C)C)C(C)C [MLT, Melittin] |  |  | ≤ 6 | 30 | ≤ 6 | 30 | 8000
